# Laboratory results: paper PMC3894639 (Pharmacogenetics and genomics, 2013)
# Positions count from the first letter of the chain named. Where a name gives a salt, the structure may show the parent alone. Read-outs that look alike come from different tables or passages of the source.
# Key:
# OATP1B1 [1] = target: T1, OATP1B1 (Homo sapiens, UniProt Q9Y6L6); experiment: Prediction of clinical drug-drug interactions; details: for R (CER): cerivastatin as substrate; for Iin,max: Fa 1, Ka 0.1/min, Qh 1500 ml/min
# T1 sequence (Q9Y6L6 1-691): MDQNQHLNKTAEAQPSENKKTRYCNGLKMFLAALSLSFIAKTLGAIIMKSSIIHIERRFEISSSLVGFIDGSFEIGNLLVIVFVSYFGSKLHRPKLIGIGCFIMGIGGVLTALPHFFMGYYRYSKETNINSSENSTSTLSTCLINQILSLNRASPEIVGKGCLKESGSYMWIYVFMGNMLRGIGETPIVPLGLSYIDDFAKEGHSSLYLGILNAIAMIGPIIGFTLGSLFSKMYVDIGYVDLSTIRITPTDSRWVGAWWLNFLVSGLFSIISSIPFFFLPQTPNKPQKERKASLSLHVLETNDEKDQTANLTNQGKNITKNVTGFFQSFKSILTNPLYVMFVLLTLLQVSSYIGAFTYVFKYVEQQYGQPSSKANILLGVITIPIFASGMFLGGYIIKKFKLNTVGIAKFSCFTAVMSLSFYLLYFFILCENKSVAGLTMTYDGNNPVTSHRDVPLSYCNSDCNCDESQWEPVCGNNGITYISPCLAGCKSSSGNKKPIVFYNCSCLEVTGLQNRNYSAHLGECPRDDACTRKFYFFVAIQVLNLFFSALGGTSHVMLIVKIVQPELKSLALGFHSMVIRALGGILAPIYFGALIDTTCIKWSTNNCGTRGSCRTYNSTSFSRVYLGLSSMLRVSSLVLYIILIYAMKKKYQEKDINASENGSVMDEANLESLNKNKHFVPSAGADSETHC
# OATP1B1 [2] = target: T1, OATP1B1
# OATP1B1 [3] = target: T1, OATP1B1; remark: listed apart in the source
# [4] = protein unbound fraction; ref literature; cited from earlier work
# [5] = cited from earlier work
# OATP1B1*15 = target: T2, OATP1B1*15 (Homo sapiens, UniProt Q9Y6L6, N130D/V174A); details: 20 nmol/l [3H]-ES
# T2 sequence (Q9Y6L6 1-691 N130D/V174A): T1 sequence (Q9Y6L6 1-691) with N130D, V174A
# OATP1B1 reference = target: T3, OATP1B1 reference (Homo sapiens, UniProt Q9Y6L6); details: 20 nmol/l [3H]-ES, 5 min, 37°C
# T3 sequence (Q9Y6L6 1-691): T1 sequence (Q9Y6L6 1-691)
# [6] = system: HEK293/FRT cells, empty vector; experiment: Uptake by HEK293/FRT cells with empty vector; type: cell-based, human
# OATP1B1 T345M = target: T4, OATP1B1 T345M (Homo sapiens, UniProt Q9Y6L6, T345M); details: 20 nmol/l [3H]-ES
# T4 sequence (Q9Y6L6 1-691 T345M): T1 sequence (Q9Y6L6 1-691) with T345M
# [7] = system: cerivastatin-induced rhabdomyolysis; details: cited from earlier work
# SLCO1B1 521T>C = SLCO1B1 521T>C polymorphism; cited from earlier work
# OATP1B1 FS (974insGT) = details: 5 nmol/l [3H]-CER; frameshift insertion
# [8] = 5 nmol/l [3H]-CER, concentrations up to 100 µmol/l
# [9] = 20 nmol/l [3H]-ES, concentrations up to 100 µmol/l
# [10] = R=1+fu×Iin,max/IC50, ES as substrate, oral dose listed per drug in Table 3
# [11] = at the oral dose listed per drug in Table 3 (clopidogrel 75 mg)
# [12] = concentrations up to 3 µmol/l, limited by solubility
SMILES,IC50 (OATP1B1 [2]),Inhibition of OATP1B1-mediated uptake of cerivastatin (in words) (OATP1B1 [2]; [8]),IC50 (OATP1B1 [3]),Inhibition of OATP1B1-mediated uptake of ES (in words) (OATP1B1 [3]; [9]),also measured
"COC(=O)[C@H](c1ccccc1Cl)N1CCC2SC(=O)C=C2C1 (some centres unmarked) [2-Oxo clopidogrel, 2-oxo clopidogrel]",8.18 µM,inhibited,8.97 µM,inhibited,"R (ES) (OATP1B1 [1]; ES as substrate, clopidogrel oral dose 600 mg): 1.26; R (CER) (OATP1B1 [1]; clopidogrel oral dose 600 mg): 1.29; Iin,max (OATP1B1 [1]; clopidogrel oral dose 600 mg): 118.69 µmol/L; fu [4]: 0.02; Cmax ([5]; clopidogrel oral dose 600 mg): 0.05 ng/mL"
"CO[C@H]1/C=C/O[C@@]2(C)Oc3c(C)c(O)c4c(O)c(c(/C=N/N5CCN(C)CC5)c(O)c4c3C2=O)NC(=O)/C(C)=C\C=C\[C@H](C)[C@H](O)[C@@H](C)[C@@H](O)[C@@H](C)[C@H](OC(C)=O)[C@@H]1C [Rifampin, rifampin]",5.65 µM,,0.88 µM,,"R (ES) (OATP1B1 [1]; [10]): 8.56; Cmax [5, 11]: 10000 ng/mL"
"Cc1ccc(-c2cc(C(F)(F)F)nn2-c2ccc(S(N)(=O)=O)cc2)cc1 [Celecoxib, celecoxib]",,did not inhibit,,did not inhibit,
"COc1ccc(Cl)cc1C(=O)NCCc1ccc(S(=O)(=O)NC(=O)NC2CCCCC2)cc1 [Glyburide, glyburide]",,,,,fu [4]: 0.002
"CN(CCOc1ccc(CC2SC(=O)NC2=O)cc1)c1ccccn1 (centres unmarked) [Rosiglitazone, Rosiglitazone-potassium salt]",43.4 µM,,4.27 µM,,"Cmax [5, 11]: 598 ng/mL"
"C[C@]12CC[C@@H]3c4ccc(OS(=O)(=O)O)cc4CC[C@H]3[C@@H]1CCC2=O [ES, [^3H]-Estrone-3-sulfate ammonium salt]",,,,,"Decrease in ES transport vs reference (OATP1B1*15): 66%; ES transport rate (OATP1B1 reference): 0.2±0.01 pmol/mg of protein/min; ES transport rate ([6]; 20 nmol/l [3H]-ES): 0.01±0.006 pmol/mg of protein/min; ES uptake, fraction of reference (OATP1B1 T345M): 0.43±0.07 of reference"
"O=C(O)[C@H]1O[C@@H](OC(=O)[C@H](c2ccccc2Cl)N2CCc3sccc3C2)[C@H](O)[C@@H](O)[C@@H]1O [Clopidogrel acyl glucuronide, clopidogrel acyl glucuronide]",,inhibited,,inhibited,
"COC(=O)[C@H](c1ccccc1Cl)N1CCc2sccc2C1 [Clopidogrel, Clopidogrel hydrogen sulfate]",3.95 µM,inhibited,,inhibited,"R (CER) (OATP1B1 [1]; clopidogrel oral dose 600 mg): 1.63; Iin,max (OATP1B1 [1]; clopidogrel oral dose 600 mg): 124.40 µmol/L; inhibition at 5 min, 100 µmol/l (OATP1B1 [2]; human, probe [3H]-cerivastatin, 5 nmol/l): 52.7%; IC50 at 5 min (OATP1B1 [3]; human, probe [3H]-estrone-3-sulfate, 20 nmol/l): > 100 µM; Odds ratio for cerivastatin-induced rhabdomyolysis ([7]; clopidogrel use in the absence of gemfibrozil use, 95% CI 12.5-182): 47.8; Odds ratio for cerivastatin-induced rhabdomyolysis ([7]; clopidogrel use in the presence of gemfibrozil use, 95% CI 6.1-143): 29.6; Cmax ([5]; clopidogrel oral dose 600 mg): 31.4 ng/mL"
Cc1c(OCC(F)(F)F)ccnc1C[S+]([O-])c1nc2ccccc2[nH]1 (centres unmarked) [lansoprazole],,did not inhibit,,did not inhibit,
C[C@]1(O)CC[C@H]2[C@@H]3CCC4=CC(=O)CC[C@]4(C)[C@@]3(F)[C@@H](O)C[C@@]21C [Fluoxymesterone],,,,,Inhibition of OATP1B1-mediated uptake of cerivastatin (in words) (OATP1B1 [2]; [12]): no inhibitory effects; Inhibition of OATP1B1-mediated uptake of ES (in words) (OATP1B1 [3]; [12]): no inhibitory effects
"CS(=O)(=O)c1ccc(C2=C(c3ccccc3)C(=O)OC2)cc1 [Rofecoxib, rofecoxib]",1.17 µM,inhibited,5.65 µM,inhibited,"R (ES) (OATP1B1 [1]; [10]): 1.15; Cmax [5, 11]: 320 ng/mL"
"CCCCC1=NC2(CCCC2)C(=O)N1Cc1ccc(-c2ccccc2-c2nnn[nH]2)cc1 [irbesartan, Irbesartan]",,did not inhibit,,did not inhibit,
"CCc1ccc(CCOc2ccc(CC3SC(=O)NC3=O)cc2)nc1 (centres unmarked) [Pioglitazone, pioglitazone hydrochloride]",39.6 µM,inhibited,6.8 µM,inhibited,"R (ES) (OATP1B1 [1]; [10]): 1.01; Cmax ([5]; in vivo, po, 75 mg): 1500 ng/mL"
"CC(C)(O)c1ccccc1CC[C@@H](SCC1(CC(=O)O)CC1)c1cccc(/C=C/c2ccc3ccc(Cl)cc3n2)c1 [Montelukast, montelukast sodium]",2.04 µM,inhibited,1.4 µM,inhibited,"R (ES) (OATP1B1 [1]; [10]): 1.01; Cmax ([5]; in vivo, po, 75 mg): 542 ng/mL"
"COCc1c(C(C)C)nc(C(C)C)c(/C=C/[C@@H](O)C[C@@H](O)CC(=O)O)c1-c1ccc(F)cc1 [cerivastatin, [^3H]-Cerivastatin sodium salt]",,,,,"Reduction in cerivastatin uptake (SLCO1B1 521T>C): 40%; Cerivastatin uptake, % of reference (OATP1B1 FS (974insGT)): 3.4 % of reference; Cerivastatin uptake transport rate ([6]; 5 nmol/l [3H]-CER): 0.02±0.01 pmol/mg of protein/min"
"CCOC(=O)C1=C(COCCN)NC(C)=C(C(=O)OC)C1c1ccccc1Cl (centres unmarked) [Amlodipine, amlodipine]",35.5 µM,,39.6 µM,,
"N[C@@H](Cc1cc(I)c(Oc2cc(I)c(O)c(I)c2)c(I)c1)C(=O)O [Levothyroxine, levothyroxine]",0.88 µM,inhibited,2.04 µM,inhibited,"R (ES) (OATP1B1 [1]; [10]): 1.00; fu [4]: 0.01; Cmax [5, 11]: 591 ng/mL"
